From PubChem BioAssay AID330 (DTP/NCI, 2004)
Values joined by “and” are separate entries in the source; they are usually repeats but may differ in a detail not shown here. Equal values may be shown once. Inconclusive results and toxic doses are left out. Numbered stars: 1 amine (or outer) side, 2 acyl side, 3 side chain; on linkers, the order of the positions; unused ones are H or OH. Bridge positions count the residues as written; N and C are the ends. Square brackets hold non-standard residues; d marks the D form. Peptide text beside a SMILES is read from it. I, II: the chains in the order shown. Actinocin(9to1) = Cc1c2oc3c(C)ccc(C(=O)[*:1])c3nc-2c(C(=O)[*:2])c(N)c1=O; aThr = C[C@H](O)[C@H](N)C(=O)O; NMeV = CN[C@H](C(=O)O)C(C)C; Sar = CNCC(=O)O

Test system: P388 leukemia ip, CD2F1 mice, survival T/C
Assay: NCI In Vivo Anticancer Drug Screen. Data for tumor model P388 Leukemia (intraperitoneal) in CD2F1 (CDF1) mice
Conditions: endpoint: median survival time, higher = longer survival
How it was run: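 Mice carrying the transplanted tumor received test compound or vehicle. Survival was recorded in each group, and the value is the treated-group measurement divided by that of the vehicle-treated control group.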

[1] = dose: 50.0 mg/kg/injection, schedule: Q01DX009 (ip), vehicle: saline with Tween-80
[2] = dose: 100.0 mg/kg/injection, schedule: Q01DX009 (ip), vehicle: saline with Tween-80

Cc1c2oc3c(C)ccc(C(=O)N[C@@H]4C(=O)N[C@H](C(C)C)C(=O)N5CCC[C@H]5C(=O)N(C)CC(=O)N(C)[C@@H](C(C)C)C(=O)O[C@H]4C)c3nc-2c(C(=O)N[C@@H]2C(=O)N[C@H](C(C)C)C(=O)N3CCC[C@H]3C(=O)N(C)CC(=O)N(C)[C@@H](C(C)C)C(=O)O[C@H]2C)c(N)c1=O (I: [aThr][dV]P[Sar][NMeV] / II: [aThr][dV]P[Sar][NMeV]; ester I:1-I:C, II:1-II:C; linker I:N-II:N via Actinocin(9to1))
T/C (dose: 0.05 mg/kg/injection, schedule: Q01DX005 (ip), vehicle: saline + alcohol): 236 % of control | T/C (dose: 0.08 mg/kg/injection, schedule: Q04DX003 (ip), vehicle: saline + alcohol): 165 % of control | T/C (dose: 0.09 mg/kg/injection, schedule: Q01DX009 (ip), vehicle: water): 79 % of control | T/C (dose: 0.1 mg/kg/injection, schedule: Q01DX001 (ip), vehicle: water): 181 % of control | T/C (dose: 0.11 mg/kg/injection, schedule: Q04DX003 (ip), vehicle: saline + alcohol): 151 % of control | T/C (dose: 0.13 mg/kg/injection, schedule: Q04DX002 (ip), vehicle: saline + alcohol): 156 % of control and 180 % of control and 198 % of control | T/C (dose: 0.13 mg/kg/injection, schedule: Q04DX003 (ip), vehicle: saline + alcohol): 223 % of control | T/C (dose: 0.15 mg/kg/injection, schedule: Q04DX003 (ip), vehicle: saline): 169 % of control | T/C (dose: 0.16 mg/kg/injection, schedule: Q01DX009 (ip), vehicle: water): 65 % of control | T/C (dose: 0.18 mg/kg/injection, schedule: Q04DX003 (ip), vehicle: saline + alcohol): 163 % of control | T/C (dose: 0.21 mg/kg/injection, schedule: Q04DX002 (ip), vehicle: saline + alcohol): 186 % of control | T/C (dose: 0.22 mg/kg/injection, schedule: Q04DX002 (ip), vehicle: saline + alcohol): 162 % of control and 215 % of control | T/C (dose: 0.22 mg/kg/injection, schedule: Q04DX003 (ip), vehicle: saline + alcohol): 247 % of control | T/C (dose: 0.3 mg/kg/injection, schedule: Q01DX001 (ip), vehicle: saline): 153 % of control | T/C (dose: 0.3 mg/kg/injection, schedule: Q04DX003 (ip), vehicle: saline + alcohol): 182 % of control | T/C (dose: 0.3 mg/kg/injection, schedule: Q04DX003 (ip), vehicle: saline): 175 % of control | T/C (dose: 0.36 mg/kg/injection, schedule: Q04DX002 (ip), vehicle: saline + alcohol): 118 % of control and 176 % of control and 212 % of control | T/C (dose: 0.36 mg/kg/injection, schedule: Q04DX003 (ip), vehicle: saline + alcohol): 99 % of control | T/C (dose: 0.45 mg/kg/injection, schedule: Q01DX001 (ip), vehicle: saline): 164 % of control | T/C (dose: 0.5 mg/kg/injection, schedule: Q04DX003 (ip), vehicle: saline + alcohol): 220 % of control | T/C (dose: 0.6 mg/kg/injection, schedule: Q01DX001 (ip), vehicle: saline): 169 % of control | T/C (dose: 0.6 mg/kg/injection, schedule: Q04DX002 (ip), vehicle: saline + alcohol): 101 % of control and 207 % of control and 254 % of control | T/C (dose: 0.6 mg/kg/injection, schedule: Q04DX003 (ip), vehicle: saline): 86 % of control | T/C (dose: 0.8 mg/kg/injection, schedule: Q01DX001 (ip), vehicle: water): 183 % of control | T/C (dose: 1.0 mg/kg/injection, schedule: Q04DX002 (ip), vehicle: saline + alcohol): 260 % of control and 274 % of control | T/C (dose: 1.2 mg/kg/injection, schedule: Q01DX001 (ip), vehicle: water): 55 % of control | T/C (dose: 3.0 micrograms/kg/injection, schedule: Q01DX009 (ip), vehicle: water): 150 % of control and 160 % of control and 175 % of control | T/C (dose: 6.0 micrograms/kg/injection, schedule: Q01DX009 (ip), vehicle: water): 164 % of control and 170 % of control and 188 % of control | T/C (dose: 6.25 micrograms/kg/injection, schedule: Q01DX005 (ip), vehicle: saline + alcohol): 207 % of control | T/C (dose: 6.25 micrograms/kg/injection, schedule: Q01DX009 (ip), vehicle: saline): 150 % of control | T/C (dose: 6.5 micrograms/kg/injection, schedule: Q01DX009 (ip), vehicle: saline + alcohol): 155 % of control | T/C (dose: 10.8 micrograms/kg/injection, schedule: Q01DX009 (ip), vehicle: saline + alcohol): 160 % of control | T/C (dose: 12.5 micrograms/kg/injection, schedule: Q01DX005 (ip), vehicle: saline + alcohol): 207 % of control | T/C (dose: 18.0 micrograms/kg/injection, schedule: Q01DX009 (ip), vehicle: saline + alcohol): 163 % of control | T/C (dose: 25.0 micrograms/kg/injection, schedule: Q01DX005 (ip), vehicle: saline + alcohol): 245 % of control | T/C (dose: 30.0 micrograms/kg/injection, schedule: Q01DX009 (ip), vehicle: saline + alcohol): 184 % of control | T/C (dose: 50.0 micrograms/kg/injection, schedule: Q01DX005 (ip), vehicle: saline + alcohol): 176 % of control and 267 % of control | T/C (dose: 64.8 micrograms/kg/injection, schedule: Q04DX003 (ip), vehicle: saline + alcohol): 156 % of control | T/C (dose: 77.8 micrograms/kg/injection, schedule: Q04DX003 (ip), vehicle: saline + alcohol): 174 % of control | T/C (dose: 83.3 micrograms/kg/injection, schedule: Q01DX009 (ip), vehicle: saline + alcohol): 98 % of control | T/C (dose: 100.0 micrograms/kg/injection, schedule: Q01DX005 (ip), vehicle: saline + alcohol): 178 % of control | T/C (dose: 130.0 micrograms/kg/injection, schedule: Q04DX003 (ip), vehicle: saline + alcohol): 175 % of control | T/C (dose: 139.0 micrograms/kg/injection, schedule: Q01DX009 (ip), vehicle: saline + alcohol): 96 % of control | T/C (dose: 180.0 micrograms/kg/injection, schedule: Q04DX003 (ip), vehicle: saline + alcohol): 190 % of control | T/C (dose: 216.0 micrograms/kg/injection, schedule: Q04DX003 (ip), vehicle: saline + alcohol): 192 % of control | T/C (dose: 300.0 micrograms/kg/injection, schedule: Q04DX003 (ip), vehicle: saline + alcohol): 162 % of control and 175 % of control | T/C (dose: 360.0 micrograms/kg/injection, schedule: Q04DX003 (ip), vehicle: saline + alcohol): 197 % of control | T/C (dose: 500.0 micrograms/kg/injection, schedule: Q04DX003 (ip), vehicle: saline + alcohol): 113 % of control and 219 % of control | T/C (dose: 600.0 micrograms/kg/injection, schedule: Q04DX003 (ip), vehicle: saline + alcohol): 101 % of control

CC(C)(C)c1cc(=O)[nH]c(NC(N)=O)n1
T/C [1]: 96 % of control | T/C [2]: 90 % of control | T/C (dose: 200.0 mg/kg/injection, schedule: Q01DX009 (ip), vehicle: saline with Tween-80): 96 % of control

CCN(CC)C1CC(C)(O)Cc2cc3c(c(O)c21)C(=O)c1c(O)cc2c(c1C3=O)OC1OC2(C)C(O)C(N(C)C)C1O (configuration not stated)
T/C (dose: 50.0 mg/kg/injection, schedule: Q01DX009 (ip), vehicle: other): 93 % of control

COc1ccc(C(=O)NC(C(N)=O)C(N)=O)cc1
T/C (dose: 100.0 mg/kg/injection, schedule: Q04DX003 (ip), vehicle: saline): 99 % of control | T/C (dose: 200.0 mg/kg/injection, schedule: Q04DX003 (ip), vehicle: saline): 99 % of control | T/C (dose: 400.0 mg/kg/injection, schedule: Q04DX003 (ip), vehicle: saline): 97 % of control

CC(=O)OC1CC2C(C)(C)C(=O)C=CC2(C)C2CCC3(C)C(c4ccoc4)CC(=O)C3C12C (configuration not stated)
T/C (dose: 0.5 mg/kg/injection, schedule: Q01DX005 (ip), vehicle: Klucel (hydroxypropylcellulose) (HPC)): 99 % of control | T/C (dose: 1.0 mg/kg/injection, schedule: Q01DX005 (ip), vehicle: Klucel (hydroxypropylcellulose) (HPC)): 100 % of control | T/C (dose: 2.0 mg/kg/injection, schedule: Q01DX005 (ip), vehicle: Klucel (hydroxypropylcellulose) (HPC)): 97 % of control | T/C (dose: 4.0 mg/kg/injection, schedule: Q01DX005 (ip), vehicle: Klucel (hydroxypropylcellulose) (HPC)): 100 % of control | T/C (dose: 8.0 mg/kg/injection, schedule: Q01DX005 (ip), vehicle: Klucel (hydroxypropylcellulose) (HPC)): 98 % of control

CC1=[N+]([O-])[N+]([O-])=C(c2ccccc2)C1=O
T/C (dose: 25.0 mg/kg/injection, schedule: Q01DX009 (ip), vehicle: saline with Tween-80): 107 % of control | T/C [1]: 92 % of control | T/C [2]: 107 % of control

O=[N+]([O-])/C=C\c1ccc(/C=C/[N+](=O)[O-])cc1
T/C (dose: 1.25 mg/kg/injection, schedule: Q01DX009 (ip), vehicle: saline): 103 % of control and 107 % of control | T/C (dose: 1.25 mg/kg/injection, schedule: Q01DX009 (ip), vehicle: suspension in saline): 103 % of control | T/C (dose: 2.5 mg/kg/injection, schedule: Q01DX009 (ip), vehicle: saline): 100 % of control and 108 % of control | T/C (dose: 2.5 mg/kg/injection, schedule: Q01DX009 (ip), vehicle: suspension in saline): 116 % of control | T/C (dose: 5.0 mg/kg/injection, schedule: Q01DX009 (ip), vehicle: saline): 104 % of control and 107 % of control | T/C (dose: 5.0 mg/kg/injection, schedule: Q01DX009 (ip), vehicle: suspension in saline): 114 % of control | T/C (dose: 10.0 mg/kg/injection, schedule: Q01DX009 (ip), vehicle: saline): 106 % of control and 116 % of control | T/C (dose: 10.0 mg/kg/injection, schedule: Q01DX009 (ip), vehicle: suspension in saline): 116 % of control
